According to ChEMBL document CHEMBL5465560, “Selectivity Literature for EUbOPEN Chemogenomic Library” (2024):
Each block holds one compound with its values, some of them ahead of it.

Columns and labels:
[1] = molecular target: Serine/threonine-protein kinase N2 (Homo sapiens, UniProt Q16513); experiment: Selectivity interaction (Kinase panel (literature)) EUB0001199aCl PKN2; settings: at 1 µM
[2] = molecular target: RAC-beta serine/threonine-protein kinase (Homo sapiens) (UniProt P31751); settings: at 10 µM
Sequence of RAC-beta serine/threonine-protein kinase (Homo sapiens) (P31751 whole entry): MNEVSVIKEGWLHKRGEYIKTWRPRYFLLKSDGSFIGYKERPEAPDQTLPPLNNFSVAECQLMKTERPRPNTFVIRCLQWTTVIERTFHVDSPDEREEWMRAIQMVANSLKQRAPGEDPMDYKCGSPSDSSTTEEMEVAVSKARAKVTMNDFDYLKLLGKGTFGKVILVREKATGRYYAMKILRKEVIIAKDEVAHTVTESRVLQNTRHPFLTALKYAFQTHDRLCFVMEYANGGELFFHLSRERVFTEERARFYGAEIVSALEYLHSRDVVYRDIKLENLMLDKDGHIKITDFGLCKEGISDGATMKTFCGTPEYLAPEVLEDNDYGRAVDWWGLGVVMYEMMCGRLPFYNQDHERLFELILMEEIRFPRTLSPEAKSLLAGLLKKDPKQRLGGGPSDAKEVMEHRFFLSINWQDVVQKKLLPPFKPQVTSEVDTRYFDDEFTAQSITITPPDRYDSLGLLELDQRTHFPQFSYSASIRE

[3] = molecular target: Tyrosine-protein kinase Fgr (Homo sapiens) (UniProt P09769); experiment: Selectivity interaction (ProQinase) EUB0000171b FGR
Sequence of Tyrosine-protein kinase Fgr (Homo sapiens) (P09769 2-529 limits assumed): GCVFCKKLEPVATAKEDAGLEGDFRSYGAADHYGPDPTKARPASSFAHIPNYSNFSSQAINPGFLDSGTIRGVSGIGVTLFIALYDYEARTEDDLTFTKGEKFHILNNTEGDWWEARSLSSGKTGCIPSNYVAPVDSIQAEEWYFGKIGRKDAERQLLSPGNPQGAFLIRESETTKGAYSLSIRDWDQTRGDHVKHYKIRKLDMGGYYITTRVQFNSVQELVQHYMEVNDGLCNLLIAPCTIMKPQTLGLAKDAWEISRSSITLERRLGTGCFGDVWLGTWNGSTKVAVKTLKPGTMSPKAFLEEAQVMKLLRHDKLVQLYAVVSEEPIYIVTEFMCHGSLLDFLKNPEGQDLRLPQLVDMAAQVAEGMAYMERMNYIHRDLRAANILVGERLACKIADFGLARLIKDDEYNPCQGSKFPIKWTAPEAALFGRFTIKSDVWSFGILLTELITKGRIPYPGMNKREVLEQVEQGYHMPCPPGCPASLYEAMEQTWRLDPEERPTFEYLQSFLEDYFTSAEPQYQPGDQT

[4] = molecular target: T1, TGF-beta receptor type-1 (Homo sapiens) (UniProt P36897); experiment: Selectivity interaction (KinomeScan (DiscoverX)) EUB0000695a TGFBR1; settings: at 100 nM
T1 sequence (whole entry): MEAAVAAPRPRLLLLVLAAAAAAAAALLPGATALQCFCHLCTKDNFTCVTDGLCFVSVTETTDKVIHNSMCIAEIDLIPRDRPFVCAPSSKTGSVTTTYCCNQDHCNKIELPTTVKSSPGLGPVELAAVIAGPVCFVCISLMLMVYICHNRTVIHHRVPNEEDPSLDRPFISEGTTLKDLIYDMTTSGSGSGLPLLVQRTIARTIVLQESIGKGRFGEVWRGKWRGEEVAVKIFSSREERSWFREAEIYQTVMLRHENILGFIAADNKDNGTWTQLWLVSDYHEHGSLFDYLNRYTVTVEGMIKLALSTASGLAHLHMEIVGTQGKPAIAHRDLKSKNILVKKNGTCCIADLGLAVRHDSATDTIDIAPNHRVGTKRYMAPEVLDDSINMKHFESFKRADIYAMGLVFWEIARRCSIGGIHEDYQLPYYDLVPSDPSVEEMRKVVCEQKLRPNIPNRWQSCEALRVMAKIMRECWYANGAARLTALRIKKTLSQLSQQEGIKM

[5] = molecular target: Tyrosine-protein kinase Lck (Homo sapiens, UniProt P06239); experiment: Selectivity interaction (KinomeScan (DiscoverX)) EUB0000595a LCK; settings: at 10 µM
Sequence of Tyrosine-protein kinase Lck (P06239 2-509 limits assumed): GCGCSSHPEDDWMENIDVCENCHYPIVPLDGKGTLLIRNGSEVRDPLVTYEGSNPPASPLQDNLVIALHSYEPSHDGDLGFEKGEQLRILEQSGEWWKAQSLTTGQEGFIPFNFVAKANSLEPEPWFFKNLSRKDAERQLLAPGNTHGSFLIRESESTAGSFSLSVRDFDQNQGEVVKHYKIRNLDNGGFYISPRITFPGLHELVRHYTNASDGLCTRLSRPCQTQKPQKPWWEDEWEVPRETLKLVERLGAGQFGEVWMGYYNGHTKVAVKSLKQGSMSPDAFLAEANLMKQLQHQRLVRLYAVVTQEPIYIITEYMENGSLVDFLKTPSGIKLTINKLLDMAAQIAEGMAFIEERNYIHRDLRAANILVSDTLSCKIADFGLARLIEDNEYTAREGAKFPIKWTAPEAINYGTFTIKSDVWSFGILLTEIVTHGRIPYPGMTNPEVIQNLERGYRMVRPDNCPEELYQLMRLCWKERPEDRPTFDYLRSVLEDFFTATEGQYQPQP

[6] = molecular target: T2, Mitogen-activated protein kinase kinase kinase 7 (Homo sapiens) (UniProt O43318); experiment: Selectivity interaction (KinomeScan (DiscoverX)) EUB0000045b MAP3K7
T2 sequence (whole entry): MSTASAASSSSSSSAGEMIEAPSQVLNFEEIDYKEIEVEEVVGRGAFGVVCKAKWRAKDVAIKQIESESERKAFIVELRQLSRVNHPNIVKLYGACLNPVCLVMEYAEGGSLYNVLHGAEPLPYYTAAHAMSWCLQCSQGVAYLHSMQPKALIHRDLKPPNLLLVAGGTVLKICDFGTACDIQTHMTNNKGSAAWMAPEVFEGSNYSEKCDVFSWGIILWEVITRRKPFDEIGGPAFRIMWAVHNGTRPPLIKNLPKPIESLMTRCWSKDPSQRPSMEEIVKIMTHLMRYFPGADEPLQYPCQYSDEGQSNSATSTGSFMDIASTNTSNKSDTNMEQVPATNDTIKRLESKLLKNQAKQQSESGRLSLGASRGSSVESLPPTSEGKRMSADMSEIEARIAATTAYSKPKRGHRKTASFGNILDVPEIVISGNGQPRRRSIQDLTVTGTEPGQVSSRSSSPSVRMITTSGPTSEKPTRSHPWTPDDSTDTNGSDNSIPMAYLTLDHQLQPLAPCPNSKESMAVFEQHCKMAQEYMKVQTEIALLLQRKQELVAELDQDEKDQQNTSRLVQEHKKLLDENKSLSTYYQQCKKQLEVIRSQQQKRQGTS

[7] = molecular target: T3, Myotonin-protein kinase (Homo sapiens) (UniProt Q09013); experiment: Selectivity interaction (KinomeScan (DiscoverX)) EUB0001079a DMPK; settings: at 1 µM
T3 sequence (whole entry): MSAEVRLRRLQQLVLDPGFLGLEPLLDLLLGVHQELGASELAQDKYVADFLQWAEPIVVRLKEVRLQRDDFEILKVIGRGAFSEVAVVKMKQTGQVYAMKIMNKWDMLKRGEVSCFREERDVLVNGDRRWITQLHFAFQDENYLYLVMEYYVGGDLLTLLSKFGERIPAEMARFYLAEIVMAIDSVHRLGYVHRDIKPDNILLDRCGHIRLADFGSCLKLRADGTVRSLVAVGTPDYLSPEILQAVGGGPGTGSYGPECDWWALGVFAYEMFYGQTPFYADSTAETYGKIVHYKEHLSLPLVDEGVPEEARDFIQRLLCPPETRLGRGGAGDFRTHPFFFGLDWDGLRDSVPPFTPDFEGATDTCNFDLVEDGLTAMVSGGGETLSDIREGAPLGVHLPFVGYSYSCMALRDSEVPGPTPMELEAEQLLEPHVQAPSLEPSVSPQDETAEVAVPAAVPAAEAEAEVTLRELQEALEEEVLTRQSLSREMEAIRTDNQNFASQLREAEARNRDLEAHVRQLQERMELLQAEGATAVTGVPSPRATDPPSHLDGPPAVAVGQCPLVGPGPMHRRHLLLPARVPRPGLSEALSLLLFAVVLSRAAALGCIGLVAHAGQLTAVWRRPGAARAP

[8] = molecular target: 5-hydroxytryptamine receptor 6 (Homo sapiens) (UniProt P50406); experiment: Selectivity interaction (GPCR panel (PDSP screen)) EUB0001079a HTR6; settings: at 10 µM
Sequence of 5-hydroxytryptamine receptor 6 (Homo sapiens) (P50406 whole entry): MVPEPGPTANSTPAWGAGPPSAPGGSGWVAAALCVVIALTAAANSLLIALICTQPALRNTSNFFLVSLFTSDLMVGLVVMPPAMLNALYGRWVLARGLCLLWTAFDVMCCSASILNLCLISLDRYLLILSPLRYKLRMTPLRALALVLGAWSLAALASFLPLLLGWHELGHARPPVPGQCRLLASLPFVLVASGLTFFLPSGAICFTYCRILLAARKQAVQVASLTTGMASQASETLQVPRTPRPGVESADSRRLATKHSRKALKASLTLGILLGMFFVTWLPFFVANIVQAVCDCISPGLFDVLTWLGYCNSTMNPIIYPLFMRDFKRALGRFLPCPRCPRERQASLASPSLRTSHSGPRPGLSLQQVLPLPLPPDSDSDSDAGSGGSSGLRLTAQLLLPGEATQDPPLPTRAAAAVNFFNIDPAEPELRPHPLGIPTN

[9] = molecular target: Death-associated protein kinase 3 (Homo sapiens) (UniProt O43293); experiment: Selectivity interaction (KinomeScan (DiscoverX)) EUB0000229b DAPK3; settings: at 10 µM
Sequence of Death-associated protein kinase 3 (Homo sapiens) (O43293 whole entry, looked up): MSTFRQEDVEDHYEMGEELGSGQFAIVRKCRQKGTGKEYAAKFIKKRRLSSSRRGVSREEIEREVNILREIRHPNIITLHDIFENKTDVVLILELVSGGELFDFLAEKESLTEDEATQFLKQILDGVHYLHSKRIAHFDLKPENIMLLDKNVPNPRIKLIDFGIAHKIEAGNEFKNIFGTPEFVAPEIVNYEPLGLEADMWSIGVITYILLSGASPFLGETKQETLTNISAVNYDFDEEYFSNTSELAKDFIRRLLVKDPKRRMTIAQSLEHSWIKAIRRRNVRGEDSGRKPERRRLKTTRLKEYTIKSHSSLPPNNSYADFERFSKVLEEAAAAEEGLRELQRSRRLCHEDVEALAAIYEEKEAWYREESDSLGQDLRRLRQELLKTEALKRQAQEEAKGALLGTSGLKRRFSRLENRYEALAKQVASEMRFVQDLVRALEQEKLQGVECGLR

[10] = molecular target: T4, SNF-related serine/threonine-protein kinase (Homo sapiens) (UniProt Q9NRH2); settings: at 10 µM
T4 sequence (whole entry): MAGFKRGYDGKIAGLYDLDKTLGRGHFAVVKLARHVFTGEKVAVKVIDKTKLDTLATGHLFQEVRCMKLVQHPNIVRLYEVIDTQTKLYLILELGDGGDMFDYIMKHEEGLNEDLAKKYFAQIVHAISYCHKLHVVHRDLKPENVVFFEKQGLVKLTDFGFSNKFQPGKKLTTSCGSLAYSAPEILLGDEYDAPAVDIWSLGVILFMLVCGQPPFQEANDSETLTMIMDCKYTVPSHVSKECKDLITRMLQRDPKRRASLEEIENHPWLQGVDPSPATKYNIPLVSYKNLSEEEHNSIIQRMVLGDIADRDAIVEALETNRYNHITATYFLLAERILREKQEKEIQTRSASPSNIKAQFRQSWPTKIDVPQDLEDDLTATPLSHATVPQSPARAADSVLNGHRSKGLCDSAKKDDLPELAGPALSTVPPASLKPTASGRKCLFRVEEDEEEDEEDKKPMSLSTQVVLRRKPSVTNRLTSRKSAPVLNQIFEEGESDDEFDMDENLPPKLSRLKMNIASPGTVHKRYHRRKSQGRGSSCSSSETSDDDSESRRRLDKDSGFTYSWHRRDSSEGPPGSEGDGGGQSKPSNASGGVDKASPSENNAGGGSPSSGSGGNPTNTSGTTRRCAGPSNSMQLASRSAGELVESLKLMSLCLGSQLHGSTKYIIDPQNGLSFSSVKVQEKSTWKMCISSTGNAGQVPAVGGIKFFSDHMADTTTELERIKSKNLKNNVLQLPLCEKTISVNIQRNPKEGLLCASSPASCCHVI

Sequence of Serine/threonine-protein kinase N2 (Q16513 whole entry, looked up): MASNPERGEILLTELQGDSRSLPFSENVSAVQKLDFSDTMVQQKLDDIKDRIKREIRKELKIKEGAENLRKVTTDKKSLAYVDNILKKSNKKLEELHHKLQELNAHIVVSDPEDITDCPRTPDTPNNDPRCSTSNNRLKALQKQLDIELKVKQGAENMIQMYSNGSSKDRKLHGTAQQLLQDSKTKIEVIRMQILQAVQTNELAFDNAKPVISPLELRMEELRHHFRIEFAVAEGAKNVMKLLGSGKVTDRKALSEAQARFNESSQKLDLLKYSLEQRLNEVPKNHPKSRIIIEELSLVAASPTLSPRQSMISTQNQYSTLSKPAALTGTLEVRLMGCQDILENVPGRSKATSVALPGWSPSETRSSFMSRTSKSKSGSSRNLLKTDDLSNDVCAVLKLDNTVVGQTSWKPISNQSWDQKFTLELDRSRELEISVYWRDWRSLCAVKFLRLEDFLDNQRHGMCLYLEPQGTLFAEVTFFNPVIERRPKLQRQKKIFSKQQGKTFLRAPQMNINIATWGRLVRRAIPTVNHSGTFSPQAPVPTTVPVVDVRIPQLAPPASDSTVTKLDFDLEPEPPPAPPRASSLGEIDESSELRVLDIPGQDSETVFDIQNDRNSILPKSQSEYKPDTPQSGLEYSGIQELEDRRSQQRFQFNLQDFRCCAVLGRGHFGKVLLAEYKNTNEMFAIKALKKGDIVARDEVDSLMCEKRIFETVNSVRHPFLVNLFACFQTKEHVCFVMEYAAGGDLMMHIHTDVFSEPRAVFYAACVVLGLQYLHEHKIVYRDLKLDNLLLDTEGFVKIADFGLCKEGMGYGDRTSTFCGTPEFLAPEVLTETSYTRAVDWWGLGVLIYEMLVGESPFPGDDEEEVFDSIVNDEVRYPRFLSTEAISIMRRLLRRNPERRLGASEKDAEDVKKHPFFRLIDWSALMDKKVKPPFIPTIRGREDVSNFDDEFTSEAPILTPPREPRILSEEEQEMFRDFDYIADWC

% of inhibition [1]: 2%
Structure (SMILES): CN1Cc2nccc(-c3cn(C)nc3-c3ccc(F)cc3)c2C1=O

% of control [2]: 100%
Structure (SMILES): CCN(CC)CCCCNc1ncc2cc(-c3cc(OC)cc(OC)c3)c(NC(=O)NC(C)(C)C)nc2n1

% of control ([3]; at 1 µM): 87% | % of control ([3]; at 5 µM): 79%
Structure (SMILES): C=CC(=O)Nc1cccc(C(=O)Nc2ccc(Nc3cc(-c4[nH]c(SC)nc4C)ccn3)cc2)c1

Structure (SMILES): Cc1cc(F)c(C(=O)Nc2cccc(-c3nncn3C(C)C)n2)cc1-n1cnc(C2CC2)c1
% of control [4]: 90%

Structure (SMILES): COCC(=O)NC/C=C/c1ccc2ncnc(Nc3ccc(Oc4ccc(C)nc4)c(C)c3)c2c1 [CP-724714]
% of control [5]: 59%

Structure (SMILES): C=CC(=O)Nc1cc(-n2c(=O)ccc3cnc4ccc(-c5ccc(NS(C)(=O)=O)cc5)cc4c32)ccc1C
% of control ([6]; at 1 µM): 83% | % of control ([6]; at 10 µM): 78%

Structure (SMILES): Nc1cnc(N2CCc3cc(S(=O)(=O)Nc4c(F)cc(Cl)cc4F)cc(N4CCCC4=O)c32)nc1 [TP-020n]
% of control [7]: 100% | % of inhibition [8]: -26.7%

Structure (SMILES): COc1cc(N(C)c2ccnc3ccc(C(F)(F)F)cc23)cc(OC)c1OC
% binding [9]: 91%

Structure (SMILES): Cc1cc([C@@H](C)Nc2ccccc2C(=O)O)c2nc(N3CCOCC3)cc(=O)n2c1 [AZD-6482]
% of control [10]: 89%
